{
  "source": "patent US6004957A",
  "about": "“Sulfonamide inhibitors of aspartyl protease” (Vertex Pharmaceuticals, Incorporated, priority 1998, dated 1999)",
  "data": [
    {"tested_on": "HIVIIIb in CCRM-CEM cells", "test": "Anti-viral potency in CCRM-CEM cells acutely infected with HIVIIIb (method of Meek et al.), extracellular p24 antigen", "format": "cell-based, HIV-1", "conditions": "Human immunodeficiency virus 1, HIV replication, Table VIII, read-out: IC90 Range", "source_text": "As discussed above, the novel compounds of the present invention are excellent ligands for aspartyl proteases, particularly HIV-1 and HIV-2 proteases. Accordingly, these compounds are capable of targeting and inhibiting late stage events in HIV replication, i.e., the processing of the viral polyproteins by HIV encoded proteases. […] Because aspartyl protease is essential for the production of mature virions, inhibition of that processing effectively blocks the spread of virus by inhibiting the production of infectious virions, particularly from chronically infected cells. […] Other anti-viral assays have confirmed the potency of these compounds.\nCompounds of formula I were tested for their antiviral potency in several virological assays. In the first assay, the compounds were added as a solution in dimethylsulfoxide (DMSO) to a test cell culture of CCRM-CEM cells, a strain of CD4^+ human T-cell lymphoma cells, previously acutely infected with HIVIIIb using standard protocols (see Meek, T. D. et al., \"Inhibition of HIV-1 protease in infected T-lymphocytes by synthetic peptide analogues\", Nature, 343, p. 90 (1990). Preferred compounds are those which are able to inhibit 90% of viral infectivity at a concentration of 1 μM or less. More preferred compounds are those which are able to inhibit 90% of viral infectivity at a concentration of 100 nM or less.\nThe effect of the compounds on inhibiting the replication of the virus was measured by determining the HIV extracellular p24 antigen concentration using a commercial enzyme immunoassay (obtained from Coulter Corporation, Hialeah, Fla.).", "units": {"IC90": "nM"}, "values": [
      {"smiles": "NC(=O)C[C@H](NC(=O)c1ccc2ccccc2n1)C(=O)N[C@@H](Cc1ccccc1)[C@H](O)CN(Cc1ccccc1)S(=O)(=O)c1ccccc1", "note": "[Compound 1]", "IC90": "1000 to 10000"},
      {"smiles": "Cc1noc(C)c1S(=O)(=O)N(Cc1ccccc1)C[C@@H](O)[C@H](Cc1ccccc1)NC(=O)[C@H](CC(N)=O)NC(=O)c1ccc2ccccc2n1", "note": "[Compound 3]", "IC90": "1000 to 10000"},
      {"smiles": "NC(=O)C[C@H](NC(=O)c1ccc2ccccc2n1)C(=O)N[C@@H](Cc1ccccc1)[C@H](O)CN(Cc1ccccc1)S(=O)(=O)c1cccc(C(F)(F)F)c1", "note": "[Compound 4]", "IC90": "1000 to 10000"},
      {"smiles": "CC(=O)Nc1nc(C)c(S(=O)(=O)N(Cc2ccccc2)C[C@@H](O)[C@H](Cc2ccccc2)NC(=O)[C@H](CC(N)=O)NC(=O)c2ccc3ccccc3n2)s1", "note": "[Compound 5]", "IC90": "101 to 1000"},
      {"smiles": "NC(=O)C[C@H](NC(=O)c1ccc2ccccc2n1)C(=O)N[C@@H](Cc1ccccc1)[C@H](O)CN(Cc1ccccc1)S(=O)(=O)c1ccc(-c2ccon2)s1", "note": "[Compound 6, (S)-N-1-(1-Benzyl-3-(benzyl-(5-isoxazol-3-yl-thiophene-2-sulfonyl)-amino)-(1S,2 syn)-1-benzyl-2-hydroxy-propyl)-2-((quinoline-2-carbonyl)-amino)-succinamide]", "IC90": "101 to 1000"},
      {"smiles": "NC(=O)C[C@H](NC(=O)c1ccc2ccccc2n1)C(=O)N[C@@H](Cc1ccccc1)[C@H](O)CN(Cc1ccccc1)S(=O)(=O)c1cccc(C(=O)O)c1", "note": "[Compound 7]", "IC90": "10000 to 40000"},
      {"smiles": "NC(=O)C[C@H](NC(=O)c1ccc2ccccc2n1)C(=O)N[C@@H](Cc1ccccc1)[C@H](O)CN(Cc1ccccc1)S(=O)(=O)c1cccc2nonc12", "note": "[Compound 9, (S)-N-1-(3-((Benzo(1,2,5)oxadiazole-4-sulfonyl)-benzyl-amino)-(1S,2 syn)-1-benzyl-2-hydroxy-propyl)-2-((quinoline-2-carbonyl)-amino)-succinamide]", "IC90": "101 to 1000"},
      {"smiles": "NC(=O)C[C@H](NC(=O)c1ccc2ccccc2n1)C(=O)N[C@@H](Cc1ccccc1)[C@H](O)CN(Cc1ccccc1)S(=O)(=O)c1cccc(S(N)(=O)=O)c1", "note": "[Compound 10, N-1-(1-(S)-Benzyl-3-(benzyl-(3-sulfamoyl-benzenesulfonyl)-amino)-2-(syn)-hydroxy-propyl)-2-((quinoline-2-carbonyl)-amino)-succinamide]", "IC90": "101 to 1000"},
      {"smiles": "CC(C)CN(C[C@@H](O)[C@H](Cc1ccccc1)NC(=O)[C@H](CC(N)=O)NC(=O)c1ccc2ccccc2n1)S(=O)(=O)c1cc(S(=O)(=O)c2ccccc2)cs1", "note": "[Compound 13, (S)-N-1-(3-((4-Benzenesulfonyl-thiophene-2-sulfonyl)-isobutyl-amino)-(1S,2 syn)-1-benzyl-2-hydroxy-propyl)-2-((quinoline-2-carbonyl)-amino)-succinamide]", "IC90": "< 100"},
      {"smiles": "CC(C)CN(C[C@@H](O)[C@H](Cc1ccccc1)NC(=O)[C@H](CC(N)=O)NC(=O)c1ccc2ccccc2n1)S(=O)(=O)c1ccc(F)cc1", "note": "[Compound 14, (S)-N-1-(1-(S)-Benzyl-3-((4-fluoro-benzenesulfonyl)-isobutyl-amino)-2-(syn)-hydroxy-propyl)-2-((quinoline-2-carbonyl)-amino)-succinamide]", "IC90": "< 100"},
      {"smiles": "CC(=O)Nc1ccc(S(=O)(=O)N(CC(C)C)C[C@@H](O)[C@H](Cc2ccccc2)NC(=O)[C@H](CC(N)=O)NC(=O)c2ccc3ccccc3n2)cc1F", "note": "[Compound 15, (S)-N-1-(3-((4-Acetylamino-3-fluoro-benzenesulfonyl)-isobutyl-amino)-(1S,2 syn)-1-benzyl-2-hydroxy-propyl)-2-((quinoline-2-carbonyl)-amino)-succinamide]", "IC90": "< 100"},
      {"smiles": "CC(=O)Nc1cc(S(=O)(=O)N(CC(C)C)C[C@@H](O)[C@H](Cc2ccccc2)NC(=O)[C@H](CC(N)=O)NC(=O)c2ccc3ccccc3n2)ccc1F", "note": "[Compound 16, (S)-N-1-(3-((3-Acetylamino-4-fluoro-benzenesulfonyl)-isobutyl-amino)-(1S,2 syn)-1-benzyl-2-hydroxy-propyl)-2-((quinoline-2-carbonyl)-amino)-succinamide]", "IC90": "101 to 1000"},
      {"smiles": "CC(=O)Nc1ccc(S(=O)(=O)N(CC(C)C)C[C@@H](O)[C@H](Cc2ccccc2)NC(=O)[C@H](CC(N)=O)NC(=O)c2ccc3ccccc3n2)cc1", "note": "[Compound 17, (S)-N-1-(1-(S)-Benzyl-3-((4-acetylamino-benzenesulfonyl)-isobutyl-amino)-2-(syn)-hydroxy-propyl)-2-((quinoline-2-carbonyl)-amino)-succinamide]", "IC90": "101 to 1000"},
      {"smiles": "CC(=O)Nc1nc(C)c(S(=O)(=O)N(CC(C)C)C[C@@H](O)[C@H](Cc2ccccc2)NC(=O)[C@H](CC(N)=O)NC(=O)c2ccc3ccccc3n2)s1", "note": "[Compound 18]", "IC90": "101 to 1000"},
      {"smiles": "CC(=O)Nc1cccc(S(=O)(=O)N(CC(C)C)C[C@@H](O)[C@H](Cc2ccccc2)NC(=O)[C@H](CC(N)=O)NC(=O)c2ccc3ccccc3n2)c1", "note": "[Compound 19, (S)-N-1-(3-((3-Acetylamino-benzenesulfonyl)-isobutyl-amino)-(1S,2 syn)-1-benzyl-2-hydroxy-propyl)-2-((quinoline-2-carbonyl)-amino)-succinamide]", "IC90": "101 to 1000"},
      {"smiles": "CC(C)CN(C[C@@H](O)[C@H](Cc1ccccc1)NC(=O)[C@H](CC(N)=O)NC(=O)c1ccc2ccccc2n1)S(=O)(=O)c1cccc2nonc12", "note": "[Compound 20, (S)-N-1-(3-((Benzo(1,2,5)oxadiazole-4-sulfonyl)-isobutyl-amino)-(1S,2 syn)-1-benzyl-2-hydroxy-propyl)-2-((quinoline-2-carbonyl)-amino)-succinamide]", "IC90": "< 100"},
      {"smiles": "CC(C)CN(C[C@@H](O)[C@H](Cc1ccccc1)NC(=O)[C@H](CC(N)=O)NC(=O)c1ccc2ccccc2n1)S(=O)(=O)N(C)C", "note": "[Compound 21, N-1-((1S-2 syn)-1-Benzyl-2-hydroxy-3-(1-isobutyl-3,3-dimethylsulfonylurea)-propyl)-2-((quinoline-2-carbonyl)-amino)-succinamide]", "IC90": "< 100"},
      {"smiles": "CC(=O)Nc1ccc(S(=O)(=O)N(CC(C)C)C[C@@H](O)[C@H](Cc2ccccc2)NC(=O)[C@@H](NC(=O)OCc2ccccn2)C(C)C)cc1", "note": "[Compound 22]", "IC90": "101 to 1000"},
      {"smiles": "C=CCOC(=O)N[C@@H](Cc1ccccc1)[C@H](O)CN(CC(C)C)S(=O)(=O)c1ccc(NC(C)=O)cc1", "note": "[Compound 27]", "IC90": "1000 to 10000"},
      {"smiles": "CC(=O)Nc1ccc(S(=O)(=O)N(CC(C)C)C[C@@H](O)[C@H](Cc2ccccc2)NC(=O)OC(C)C)cc1", "note": "[Compound 29]", "IC90": "1000 to 10000"},
      {"smiles": "CC(C)CN(C[C@@H](O)[C@H](Cc1ccccc1)NC(=O)OC(C)(C)C)S(=O)(=O)c1ccc(F)cc1", "note": "[Compound 32]", "IC90": "1000 to 10000"},
      {"smiles": "CC(C)CN(C[C@@H](O)[C@H](Cc1ccccc1)NC(=O)O[C@H]1CCOC1)S(=O)(=O)c1ccc(F)cc1", "note": "[Compound 35, 4-Fluoro-N-((2 syn,3S)-2-hydroxy-4-phenyl-3-((S)-tetrahydrofuran-3-yloxycarbonylamino)-butyl)-N-isobutyl-benzenesulfonamide]", "IC90": "101 to 1000"},
      {"smiles": "CC(C)CN(C[C@@H](O)[C@H](Cc1ccccc1)NC(=O)O[C@H]1CCOC1)S(=O)(=O)c1ccc(Cl)c(Cl)c1", "note": "[Compound 37, 3,4-Dichloro-N-((2 syn,3S)-2-hydroxy-4-phenyl-3-((S)-tetrahydrofuran-3-yloxycarbonylamino)-butyl)-N-isobutyl-benzenesulfonamide]", "IC90": "101 to 1000"},
      {"smiles": "CC(C)CN(C[C@@H](O)[C@H](Cc1ccccc1)NC(=O)OCc1ccccc1)S(=O)(=O)c1ccc(F)cc1", "note": "[Compound 38]", "IC90": "1000 to 10000"},
      {"smiles": "CC(=O)Nc1ccc(S(=O)(=O)N(CC(C)C)C[C@@H](O)[C@H](Cc2ccccc2)NC(=O)OC(C)(C)C)cc1", "note": "[Compound 39]", "IC90": "1000 to 10000"},
      {"smiles": "CC(=O)Nc1ccc(S(=O)(=O)N(CC(C)C)C[C@@H](O)[C@H](Cc2ccccc2)NC(=O)OCc2cccnc2)cc1", "note": "[Compound 44, N-(4-(((2 syn,3S)-2-Hydroxy-4-phenyl-3-(pyridin-3-yl-methoxycarbonylamino)-butyl)-isobutyl-sulfamoyl)-phenyl)-acetamide]", "IC90": "101 to 1000"},
      {"smiles": "CC(C)CN(C[C@@H](O)[C@H](Cc1ccccc1)NC(=O)OC(C)(C)C)S(=O)(=O)c1ccccc1", "note": "[Compound 45]", "IC90": "1000 to 10000"},
      {"smiles": "CC(=O)Nc1ccc(S(=O)(=O)N(CC(C)C)C[C@@H](O)[C@H](Cc2ccccc2)NC(=O)O[C@H]2CCOC2)cc1", "note": "[Compound 48, N-(4-(((2 syn,3S)-2-Hydroxy-4-phenyl-3-((S)-tetrahydrofuran-3-yloxycarbonylamino)-butyl)-isobutyl-sulfamoyl)-phenyl)-acetamide]", "IC90": "101 to 1000"},
      {"smiles": "CC(C)CN(C[C@@H](O)[C@H](Cc1ccccc1)NC(=O)OC(C)(C)C)S(=O)(=O)c1ccc(F)cc1F", "note": "[Compound 49]", "IC90": "1000 to 10000"},
      {"smiles": "CC(C)CN(C[C@@H](O)[C@H](Cc1ccccc1)NC(=O)O[C@H]1CCOC1)S(=O)(=O)c1ccc(-c2ccccn2)s1", "note": "[Compound 51]", "IC90": "1000 to 10000"},
      {"smiles": "CC(=O)Nc1cc(S(=O)(=O)N(CC(C)C)C[C@@H](O)[C@H](Cc2ccccc2)NC(=O)OC(C)(C)C)ccc1F", "note": "[Compound 54]", "IC90": "1000 to 10000"},
      {"smiles": "CC(C)CN(C[C@@H](O)[C@H](Cc1ccccc1)NC(=O)O[C@H]1CCOC1)S(=O)(=O)c1cccc2nonc12", "note": "[Compound 60]", "IC90": "1000 to 10000"},
      {"smiles": "CC(=O)Nc1ccc(S(=O)(=O)N(CC(C)C)C[C@@H](O)[C@H](Cc2ccccc2)NC(=O)OCc2ccccc2)cc1", "note": "[Compound 61]", "IC90": "1000 to 10000"},
      {"smiles": "CC(C)CN(C[C@@H](O)[C@H](Cc1ccccc1)NC(=O)OCc1ccccc1)S(=O)(=O)c1ccc(N)c([N+](=O)[O-])c1", "note": "[Compound 63]", "IC90": "1000 to 10000"}
    ]}
  ]
}
